How the values were obtained:
Ipomoea [1] = test: Pre-emergence herbicidal action (Example B1); type: in vivo; settings: 500 g of a.i./ha, sprayed immediately after sowing, evaluated after 3 weeks, nine-step scale (1=complete damage, 9=no action)
Description: (§1) Herbicidal Action Before Emergence of the Plants (Pre-emergence Action)
(§2) Monocotyledoneous and dicotyledoneous test plants are grown in standard soil in plastic pots. Immediately after sowing, the test substances are sprayed on in the form of an aqueous suspension or emulsion, prepared from a 25% emulsion concentrate (Example F1, c)), which corresponds to a dosage of 500 g of a.i./ha (500 l of water/ha). The test plants are subsequently grown in the greenhouse under optimal conditions. After a test period of 3 weeks, the experiment is evaluated on a nine-step scale (1=complete damage, 9=no action). Score figures of 1 to 4 (in particular 1 to 3) denote a good to very good herbicidal action.
(§3) Test plants: Avena, Setaria, Solanum, Stellaria, Ipomoea.

Avena = test: Pre-emergence herbicidal action (Example B1); type: in vivo; settings: 500 g of a.i./ha, sprayed immediately after sowing, evaluated after 3 weeks, nine-step scale (1=complete damage, 9=no action)
Description: as §1, §2, §3

Setaria [2] = test: Pre-emergence herbicidal action (Example B1); type: in vivo; design: key: 1=complete damage; 9=no action; Score figures of 1 to 4 (in particular 1 to 3) denote a good to very good herbicidal action; settings: 500 g of a.i./ha, sprayed immediately after sowing, evaluated after 3 weeks, nine-step scale (1=complete damage, 9=no action)
Description: as §1, §2, §3

Stellaria [3] = test: Pre-emergence herbicidal action (Example B1); type: in vivo; design: key: 1=complete damage; 9=no action; Score figures of 1 to 4 (in particular 1 to 3) denote a good to very good herbicidal action; settings: 500 g of a.i./ha, sprayed immediately after sowing, evaluated after 3 weeks, nine-step scale (1=complete damage, 9=no action)
Description: as §1, §2, §3

Solanum [4] = test: Pre-emergence herbicidal action (Example B1); type: in vivo; design: key: 1=complete damage; 9=no action; Score figures of 1 to 4 (in particular 1 to 3) denote a good to very good herbicidal action; settings: 500 g of a.i./ha, sprayed immediately after sowing, evaluated after 3 weeks, nine-step scale (1=complete damage, 9=no action)
Description: as §1, §2, §3

Ipomoea [5] = test: Post-emergence herbicidal action (Example B2); type: in vivo; design: key: 1=complete damage; 9=no action; Score figures of 1 to 4 (in particular 1 to 3) denote a good to very good herbicidal action; settings: 500 g of a.i./ha, sprayed in the 4- to 6-leaf stage, evaluated after approximately 18 days, nine-step scale (1=complete damage, 9=no action)
Description: (§4) Post-emergence Herbicidal Action
(§5) In the greenhouse, monocotyledoneous and dicotyledoneous test plants are grown in standard soil in plastic pots and, in the 4- to 6-leaf stage, sprayed with an aqueous suspension or emulsion of the test substances of the formula I, prepared from a 25% emulsion concentrate (Example F1, c)), which corresponds to a dosage of 500 g of a.i./ha (500 l of water/ha). The test plants are subsequently grown on in the greenhouse under optimal conditions. After a test period of approximately 18 days, the experiment is evaluated on a nine-step scale (1=complete damage, 9=no action). Score figures of 1 to 4 (in particular 1 to 3) denote a good to very good herbicidal action.
(§6) Test plants: Setaria, Sinapis, Solanum, Stellaria, Ipomoea.

Sinapis = test: Post-emergence herbicidal action (Example B2); type: in vivo; design: key: 1=complete damage; 9=no action; Score figures of 1 to 4 (in particular 1 to 3) denote a good to very good herbicidal action; settings: 500 g of a.i./ha, sprayed in the 4- to 6-leaf stage, evaluated after approximately 18 days, nine-step scale (1=complete damage, 9=no action)
Description: as §4, §5, §6

Stellaria [6] = test: Post-emergence herbicidal action (Example B2); type: in vivo; design: key: 1=complete damage; 9=no action; Score figures of 1 to 4 (in particular 1 to 3) denote a good to very good herbicidal action; settings: 500 g of a.i./ha, sprayed in the 4- to 6-leaf stage, evaluated after approximately 18 days, nine-step scale (1=complete damage, 9=no action)
Description: as §4, §5, §6

Setaria [7] = test: Post-emergence herbicidal action (Example B2); type: in vivo; design: key: nine-step scale: 1 = complete damage, 9 = no action; settings: 500 g of a.i./ha, sprayed in the 4- to 6-leaf stage, evaluated after approximately 18 days, nine-step scale (1=complete damage, 9=no action)
Description: as §4, §5, §6

Solanum [8] = test: Post-emergence herbicidal action (Example B2); type: in vivo; design: key: 1=complete damage; 9=no action; Score figures of 1 to 4 (in particular 1 to 3) denote a good to very good herbicidal action; settings: 500 g of a.i./ha, sprayed in the 4- to 6-leaf stage, evaluated after approximately 18 days, nine-step scale (1=complete damage, 9=no action)
Description: as §4, §5, §6

SMILES	melting point	Pre-emergence action, score, test plant Ipomoea (Ipomoea [1])	Pre-emergence action, score, test plant Avena (Avena)	Pre-emergence action, score, test plant Setaria (Setaria [2])	Pre-emergence action, score, test plant Stellaria (Stellaria [3])	Pre-emergence action, score, test plant Solanum (Solanum [4])	Post-emergence action, score, test plant Ipomoea (Ipomoea [5])	Post-emergence action, score, test plant Sinapis (Sinapis)	Post-emergence action, score, test plant Stellaria (Stellaria [6])	Post-emergence action, score, test plant Setaria (Setaria [7])	Post-emergence action, score, test plant Solanum (Solanum [8])
C#CCOc1cc(-c2nn(C)c(C#N)c2C)c(Cl)cc1Cl [Comp. No. I3.027, 3-(2,4-dichloro-5-propargyloxyphenyl)-4-methyl-5-cyano-1-methyl-[1H]-pyrazole]	256 to 257 °C	6	6	1	2	1	–	–	–	–	–
Cc1c(-c2cc(C(=O)OC(C)(C)C(=O)O)c(Cl)cc2F)nn(C)c1C#N [I1, 151]	–	–	–	–	–	–	1	1	1	3	–
C#CCOc1cc(-c2nn(C)c(C#N)c2C)c(F)cc1Cl [I1.027]	145 to 146 °C	4	3	2	1	1	–	–	–	–	–
C#CCOc1cc(-c2nn(C)c(C#N)c2C)c(F)cc1Cl [I1, 027]	–	–	–	–	–	–	1	3	1	3	1
COC(=O)c1cc(-c2nn(C)c(C#N)c2C)c(F)cc1Cl [I1, 134]	–	–	–	–	–	–	1	3	1	5	1
Cc1c(-c2ccc(Cl)cc2F)nn(C)c1C(N)=S [I5.001]	–	6	6	1	7	1	–	–	–	–	–
Cc1c(-c2ccc(Cl)cc2F)nn(C)c1C(N)=S [I5, 001]	–	–	–	–	–	–	1	7	7	6	1
Cc1c(-c2ccc(Cl)cc2F)nn(C)c1C#N [I1.001]	152 to 153 °C	3	4	1	6	1	–	–	–	–	–
COc1cc(-c2nn(C)c(C#N)c2C)c(F)cc1Cl [I1.006]	–	4	4	1	1	1	–	–	–	–	–
Cc1c(-c2cc(C(=O)OC(C)C)c(Cl)cc2F)nn(C)c1C#N [I1.140]	–	4	3	1	1	2	–	–	–	–	–
Cc1c(-c2cc(C(=O)O)c(Cl)cc2F)nn(C)c1C#N [I1, 130]	–	–	–	–	–	–	1	1	1	3	1
Cc1c(-c2cc(CC(Cl)C(=O)OCc3ccccc3)c(Cl)cc2F)nn(C)c1C#N (centres unmarked) [I1, 122]	–	–	–	–	–	–	1	1	1	4	1
Cc1c(-c2cc(C(=O)OC(C)C)c(Cl)cc2F)nn(C)c1C#N [I1, 140]	–	–	–	–	–	–	1	4	1	2	1
C#CCOc1cc(-c2nn(C)c(C#N)c2C)c(Cl)cc1Cl [I3, 027]	–	–	–	–	–	–	3	3	3	6	1
COc1cc(-c2nn(C)c(C#N)c2C)c(F)cc1Cl [I1, 006]	–	–	–	–	–	–	1	3	3	2	1
Cc1c(-c2cc(O)c(Cl)cc2Cl)nn(C)c1C#N [Comp. No. I36.103, 3-(2,4-dichloro-5-hydroxyphenyl)-4-methyl-5-cyano-1-methyl-[1H]-pyrazole]	263 to 265 °C	–	–	–	–	–	–	–	–	–	–
Cc1c(-c2ccc(Cl)cc2F)nn(C)c1C#N [I1, 001]	–	–	–	–	–	–	1	4	5	3	2

Reference: patent US6339046B1, “Pyrazde herbicides” (Syngenta Investment Corporation, priority 1996, dated 2002)
